{"source": "patent US20020137929A1", "about": "“1 - (3-heterocyclylphenyl) isothiourea, -isourea, -guanidine and -amidine herbicidal agents” (Intellectual Property Department, BASF Aktiengesellschaft, priority 1998, published 2002)", "key": {"CASOB (Sicklepod)": {"system": "CASOB (Sicklepod)", "assay": "Postemergence herbicidal evaluation", "type": "in vivo, Cassia obtusifolia", "outline": "(§1)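 Each compound, dispersed in an acetone/water mix (50/50) carrying 0.5% TWEEN 20, is nozzle-sprayed at 40 psi on approximately two-week-old seedlings at about 0.0156–0.500 kg/ha. Plants are assessed 4–5 weeks afterward on a 0–9 scale relative to control; duplicate tests are averaged.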"}, "[1]": {"system": "CHEAL (Lambsquarters, Common)", "assay": "Postemergence herbicidal evaluation", "type": "in vivo, Chenopodium album", "outline": "as §1"}, "ECHCG (Barnyardgrass)": {"system": "ECHCG (Barnyardgrass)", "assay": "Postemergence herbicidal evaluation", "type": "in vivo, Echinochloa crus-galli", "outline": "as §1"}, "ORYSAT (Rice, Tebonnet) [2]": {"system": "ORYSAT (Rice, Tebonnet)", "assay": "Postemergence herbicidal evaluation", "type": "in vivo, Oryza sativa, (L.) Tebonnet", "outline": "as §1"}, "GALAP (Galium)": {"system": "GALAP (Galium)", "assay": "Preemergence herbicidal evaluation", "type": "in vivo, Galium aparine", "conditions": "rated 4-5 weeks after treatment", "outline": "(§2)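 Sown cups got a single aqueous acetone spray of test compound (roughly 0.0156–0.500 kg/ha) before seedlings emerged. Evaluation, 4–5 weeks on, used a 0–9 visual scale covering plant stand, vigor, size, malformation, chlorosis and general appearance compared with controls.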"}, "SETVI (Foxtail, Green)": {"system": "SETVI (Foxtail, Green)", "assay": "Preemergence herbicidal evaluation", "type": "in vivo, Setaria viridis", "conditions": "rated 4-5 weeks after treatment", "outline": "as §2"}, "[3]": {"system": "GLXMAW (Soybean, Williams)", "assay": "Preemergence herbicidal evaluation", "type": "in vivo, Glycine max, (L.) Merr. cv Williams", "conditions": "rated 4-5 weeks after treatment", "outline": "as §2"}, "ORYSAT (Rice, Tebonnet) [4]": {"system": "ORYSAT (Rice, Tebonnet)", "assay": "Preemergence herbicidal evaluation", "type": "in vivo, Oryza sativa, (L.) Tebonnet", "conditions": "rated 4-5 weeks after treatment", "outline": "as §2"}, "[5]": {"system": "TRZAWR (Wheat, Winter, cv Riband)", "assay": "Preemergence herbicidal evaluation", "type": "in vivo, Triticum aestivum", "conditions": "rated 4-5 weeks after treatment", "outline": "as §2"}, "ZEAMX (Corn, Field)": {"system": "ZEAMX (Corn, Field)", "assay": "Preemergence herbicidal evaluation", "type": "in vivo, Zea mays", "conditions": "rated 4-5 weeks after treatment", "outline": "as §2"}, "CYPIR (Rice Flatsedge)": {"system": "CYPIR (Rice Flatsedge)", "assay": "Preemergence weed control under flooded paddy conditions", "type": "in vivo, Cyperus iria", "conditions": "rated 3-4 weeks after treatment", "outline": "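Herbicidal effect is scored visually on a 0-9 scale against an untreated control, three to four weeks after compounds are pipetted into the flood water (1.5 to 3 cm deep) over seeds planted in silt loam at 0.5 cm depth. Rates: about 0.0313 to 0.500 kg/ha.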"}, "MOOVA (Monochoria)": {"system": "MOOVA (Monochoria)", "assay": "Preemergence weed control under flooded paddy conditions", "type": "in vivo, Monochoria vaginalis", "conditions": "rated 3-4 weeks after treatment", "outline": "(§3)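 First, seeds or propagules go into the top 0.5 cm of silt loam; next, water is held 1.5 to 3 cm over the soil; then compound (50/50 acetone/water) is pipetted into it at about 0.0313 to 0.500 kg/ha; finally plants are rated visually 0-9 after three to four weeks.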"}, "[6]": {"system": "SAGPY (Arrowhead (Pygmaea))", "assay": "Preemergence weed control under flooded paddy conditions", "type": "in vivo, Sagittaria pygmaea", "conditions": "rated 3-4 weeks after treatment", "outline": "as §3"}, "CYPSE (Flatsedge)": {"system": "CYPSE (Flatsedge)", "assay": "Postemergence weed control under flooded paddy conditions", "type": "in vivo, Cyperus serotinus", "conditions": "postemergence weeds, 3-4 weeks after treatment", "outline": "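Flood-water application, about 0.0313–0.500 kg/ha a.i. in aqueous/acetone 50/50 v/v; water depth 1.5–3 cm throughout. Weeds 3–5 cm, rice 1.5–2.5 leaf. Greenhouse; 0–9 visual rating vs control at 3–4 wk.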"}}}
{"compound": "Cn1c(C(F)(F)F)cc(=O)n(-c2cc(N=C3SCC(=O)N3CCC(=O)O)c(Cl)cc2F)c1=O", "note": "[Compound 30, 2-{{2-Chloro-5-[3,6-dihydro-3-methyl-2,6-dioxo-4-(trifluoromethyl)-1(2H)-pyrimidinyl]-4-fluorophenyl}imino}-4-oxo-3-thiazolidinepropionic acid]", "values": [{"measurement": "Postemergence herbicidal rating CASOB", "setting": "CASOB (Sicklepod); Rate 0.0158 kg/ha", "result": 0.0}, {"measurement": "Postemergence herbicidal rating CASOB", "setting": "CASOB (Sicklepod); Rate 0.0315 kg/ha", "result": 0.0}, {"measurement": "Postemergence herbicidal rating CASOB", "setting": "CASOB (Sicklepod); Rate 0.0630 kg/ha", "result": 0.0}, {"measurement": "Postemergence herbicidal rating CHEAL", "setting": "[1]; Rate 0.0158 kg/ha", "result": 0.0}, {"measurement": "Postemergence herbicidal rating CHEAL", "setting": "[1]; Rate 0.0315 kg/ha", "result": 0.0}, {"measurement": "Postemergence herbicidal rating CHEAL", "setting": "[1]; Rate 0.0630 kg/ha", "result": 3.0}, {"measurement": "Postemergence herbicidal rating ECHCG", "setting": "ECHCG (Barnyardgrass); Rate 0.0158 kg/ha", "result": 0.0}, {"measurement": "Postemergence herbicidal rating ECHCG", "setting": "ECHCG (Barnyardgrass); Rate 0.0315 kg/ha", "result": 0.0}, {"measurement": "Postemergence herbicidal rating ECHCG", "setting": "ECHCG (Barnyardgrass); Rate 0.0630 kg/ha", "result": 0.0}, {"measurement": "Postemergence herbicidal rating ORYSAT", "setting": "ORYSAT (Rice, Tebonnet) [2]; Rate 0.0158 kg/ha", "result": 2.0}, {"measurement": "Postemergence herbicidal rating ORYSAT", "setting": "ORYSAT (Rice, Tebonnet) [2]; Rate 0.0315 kg/ha", "result": 2.5}, {"measurement": "Postemergence herbicidal rating ORYSAT", "setting": "ORYSAT (Rice, Tebonnet) [2]; Rate 0.0630 kg/ha", "result": 3.5}, {"measurement": "Preemergence herbicidal rating GALAP", "setting": "GALAP (Galium); rate 0.0313 kg/ha", "result": 0.0}, {"measurement": "Preemergence herbicidal rating GALAP", "setting": "GALAP (Galium); rate 0.0625 kg/ha", "result": 0.0}, {"measurement": "Preemergence herbicidal rating GALAP", "setting": "GALAP (Galium); rate 0.1250 kg/ha", "result": 1.0}, {"measurement": "Preemergence herbicidal rating GALAP", "setting": "GALAP (Galium); rate 0.2500 kg/ha", "result": 9.0}, {"measurement": "Preemergence herbicidal rating SETVI", "setting": "SETVI (Foxtail, Green); rate 0.0313 kg/ha", "result": 0.0}, {"measurement": "Preemergence herbicidal rating SETVI", "setting": "SETVI (Foxtail, Green); rate 0.0625 kg/ha", "result": 0.0}, {"measurement": "Preemergence herbicidal rating SETVI", "setting": "SETVI (Foxtail, Green); rate 0.1250 kg/ha", "result": 7.0}, {"measurement": "Preemergence herbicidal rating SETVI", "setting": "SETVI (Foxtail, Green); rate 0.2500 kg/ha", "result": 9.0}, {"measurement": "Preemergence herbicidal rating GLXMAW", "setting": "[3]; rate 0.0313 kg/ha", "result": 2.0}, {"measurement": "Preemergence herbicidal rating GLXMAW", "setting": "[3]; rate 0.0625 kg/ha", "result": 3.0}, {"measurement": "Preemergence herbicidal rating GLXMAW", "setting": "[3]; rate 0.1250 kg/ha", "result": 1.0}, {"measurement": "Preemergence herbicidal rating GLXMAW", "setting": "[3]; rate 0.2500 kg/ha", "result": 4.0}, {"measurement": "Preemergence herbicidal rating ORYSAT", "setting": "ORYSAT (Rice, Tebonnet) [4]; rate 0.0313 kg/ha", "result": 1.0}, {"measurement": "Preemergence herbicidal rating ORYSAT", "setting": "ORYSAT (Rice, Tebonnet) [4]; rate 0.0625 kg/ha", "result": 1.0}, {"measurement": "Preemergence herbicidal rating ORYSAT", "setting": "ORYSAT (Rice, Tebonnet) [4]; rate 0.1250 kg/ha", "result": 1.0}, {"measurement": "Preemergence herbicidal rating ORYSAT", "setting": "ORYSAT (Rice, Tebonnet) [4]; rate 0.2500 kg/ha", "result": 4.0}, {"measurement": "Preemergence herbicidal rating TRZAWR", "setting": "[5]; rate 0.0313 kg/ha", "result": 0.0}, {"measurement": "Preemergence herbicidal rating TRZAWR", "setting": "[5]; rate 0.0625 kg/ha", "result": 1.0}, {"measurement": "Preemergence herbicidal rating TRZAWR", "setting": "[5]; rate 0.1250 kg/ha", "result": 2.0}, {"measurement": "Preemergence herbicidal rating TRZAWR", "setting": "[5]; rate 0.2500 kg/ha", "result": 6.0}, {"measurement": "Preemergence herbicidal rating ZEAMX", "setting": "ZEAMX (Corn, Field); rate 0.0313 kg/ha", "result": 1.0}, {"measurement": "Preemergence herbicidal rating ZEAMX", "setting": "ZEAMX (Corn, Field); rate 0.0625 kg/ha", "result": 3.0}, {"measurement": "Preemergence herbicidal rating ZEAMX", "setting": "ZEAMX (Corn, Field); rate 0.1250 kg/ha", "result": 3.0}, {"measurement": "Preemergence herbicidal rating ZEAMX", "setting": "ZEAMX (Corn, Field); rate 0.2500 kg/ha", "result": 6.0}, {"measurement": "Herbicidal rating CYPIR", "setting": "CYPIR (Rice Flatsedge); 0.1250 kg/ha", "result": 2.0}, {"measurement": "Herbicidal rating CYPIR", "setting": "CYPIR (Rice Flatsedge); 0.2500 kg/ha", "result": 4.5}, {"measurement": "Herbicidal rating MOOVA", "setting": "MOOVA (Monochoria); 0.1250 kg/ha", "result": 1.5}, {"measurement": "Herbicidal rating MOOVA", "setting": "MOOVA (Monochoria); 0.2500 kg/ha", "result": 4.5}, {"measurement": "Herbicidal rating SAGPY", "setting": "[6]; 0.1250 kg/ha", "result": 0.0}, {"measurement": "Herbicidal rating SAGPY", "setting": "[6]; 0.2500 kg/ha", "result": 2.0}, {"measurement": "Herbicidal rating CYPSE", "setting": "CYPSE (Flatsedge); rate 0.1250 kg/ha", "result": 0.0}, {"measurement": "Herbicidal rating CYPSE", "setting": "CYPSE (Flatsedge); rate 0.2500 kg/ha", "result": 0.0}]}
